Test results from article PMC8480326, “Chemoenzymatic glycan-selective remodeling of a therapeutic lysosomal enzyme with high-affinity M6P-glycan ligands. Enzyme substrate specificity is the name of the game” (Chemical Science, 2021).
Entries after “also recorded” stand apart in the source; their conditions may differ.

Legend:
[1] = molecular target: CI-MPR; parameters: method as in PMID 30843882; details: rhGAA with higher M6P content; read-out: apparent KD; cited from earlier work
[2] = tested on: GAA-deficient multinucleated myotubes (KO); experiment: Western blot of lysosomal (LAMP1) and endosomal (Rab5) markers; assay type: cell-based, mouse; details: 5 μM for 24 hours
[3] = molecular target: T1, Recombinant human IGF-II R (CI-MPR) (Homo sapiens, UniProt P11717); experiment: SPR binding to immobilized CI-MPR; details: SPR, immobilized CI-MPR
T1 construct: purchased R&D Systems
T1 sequence (P11717 41-2491): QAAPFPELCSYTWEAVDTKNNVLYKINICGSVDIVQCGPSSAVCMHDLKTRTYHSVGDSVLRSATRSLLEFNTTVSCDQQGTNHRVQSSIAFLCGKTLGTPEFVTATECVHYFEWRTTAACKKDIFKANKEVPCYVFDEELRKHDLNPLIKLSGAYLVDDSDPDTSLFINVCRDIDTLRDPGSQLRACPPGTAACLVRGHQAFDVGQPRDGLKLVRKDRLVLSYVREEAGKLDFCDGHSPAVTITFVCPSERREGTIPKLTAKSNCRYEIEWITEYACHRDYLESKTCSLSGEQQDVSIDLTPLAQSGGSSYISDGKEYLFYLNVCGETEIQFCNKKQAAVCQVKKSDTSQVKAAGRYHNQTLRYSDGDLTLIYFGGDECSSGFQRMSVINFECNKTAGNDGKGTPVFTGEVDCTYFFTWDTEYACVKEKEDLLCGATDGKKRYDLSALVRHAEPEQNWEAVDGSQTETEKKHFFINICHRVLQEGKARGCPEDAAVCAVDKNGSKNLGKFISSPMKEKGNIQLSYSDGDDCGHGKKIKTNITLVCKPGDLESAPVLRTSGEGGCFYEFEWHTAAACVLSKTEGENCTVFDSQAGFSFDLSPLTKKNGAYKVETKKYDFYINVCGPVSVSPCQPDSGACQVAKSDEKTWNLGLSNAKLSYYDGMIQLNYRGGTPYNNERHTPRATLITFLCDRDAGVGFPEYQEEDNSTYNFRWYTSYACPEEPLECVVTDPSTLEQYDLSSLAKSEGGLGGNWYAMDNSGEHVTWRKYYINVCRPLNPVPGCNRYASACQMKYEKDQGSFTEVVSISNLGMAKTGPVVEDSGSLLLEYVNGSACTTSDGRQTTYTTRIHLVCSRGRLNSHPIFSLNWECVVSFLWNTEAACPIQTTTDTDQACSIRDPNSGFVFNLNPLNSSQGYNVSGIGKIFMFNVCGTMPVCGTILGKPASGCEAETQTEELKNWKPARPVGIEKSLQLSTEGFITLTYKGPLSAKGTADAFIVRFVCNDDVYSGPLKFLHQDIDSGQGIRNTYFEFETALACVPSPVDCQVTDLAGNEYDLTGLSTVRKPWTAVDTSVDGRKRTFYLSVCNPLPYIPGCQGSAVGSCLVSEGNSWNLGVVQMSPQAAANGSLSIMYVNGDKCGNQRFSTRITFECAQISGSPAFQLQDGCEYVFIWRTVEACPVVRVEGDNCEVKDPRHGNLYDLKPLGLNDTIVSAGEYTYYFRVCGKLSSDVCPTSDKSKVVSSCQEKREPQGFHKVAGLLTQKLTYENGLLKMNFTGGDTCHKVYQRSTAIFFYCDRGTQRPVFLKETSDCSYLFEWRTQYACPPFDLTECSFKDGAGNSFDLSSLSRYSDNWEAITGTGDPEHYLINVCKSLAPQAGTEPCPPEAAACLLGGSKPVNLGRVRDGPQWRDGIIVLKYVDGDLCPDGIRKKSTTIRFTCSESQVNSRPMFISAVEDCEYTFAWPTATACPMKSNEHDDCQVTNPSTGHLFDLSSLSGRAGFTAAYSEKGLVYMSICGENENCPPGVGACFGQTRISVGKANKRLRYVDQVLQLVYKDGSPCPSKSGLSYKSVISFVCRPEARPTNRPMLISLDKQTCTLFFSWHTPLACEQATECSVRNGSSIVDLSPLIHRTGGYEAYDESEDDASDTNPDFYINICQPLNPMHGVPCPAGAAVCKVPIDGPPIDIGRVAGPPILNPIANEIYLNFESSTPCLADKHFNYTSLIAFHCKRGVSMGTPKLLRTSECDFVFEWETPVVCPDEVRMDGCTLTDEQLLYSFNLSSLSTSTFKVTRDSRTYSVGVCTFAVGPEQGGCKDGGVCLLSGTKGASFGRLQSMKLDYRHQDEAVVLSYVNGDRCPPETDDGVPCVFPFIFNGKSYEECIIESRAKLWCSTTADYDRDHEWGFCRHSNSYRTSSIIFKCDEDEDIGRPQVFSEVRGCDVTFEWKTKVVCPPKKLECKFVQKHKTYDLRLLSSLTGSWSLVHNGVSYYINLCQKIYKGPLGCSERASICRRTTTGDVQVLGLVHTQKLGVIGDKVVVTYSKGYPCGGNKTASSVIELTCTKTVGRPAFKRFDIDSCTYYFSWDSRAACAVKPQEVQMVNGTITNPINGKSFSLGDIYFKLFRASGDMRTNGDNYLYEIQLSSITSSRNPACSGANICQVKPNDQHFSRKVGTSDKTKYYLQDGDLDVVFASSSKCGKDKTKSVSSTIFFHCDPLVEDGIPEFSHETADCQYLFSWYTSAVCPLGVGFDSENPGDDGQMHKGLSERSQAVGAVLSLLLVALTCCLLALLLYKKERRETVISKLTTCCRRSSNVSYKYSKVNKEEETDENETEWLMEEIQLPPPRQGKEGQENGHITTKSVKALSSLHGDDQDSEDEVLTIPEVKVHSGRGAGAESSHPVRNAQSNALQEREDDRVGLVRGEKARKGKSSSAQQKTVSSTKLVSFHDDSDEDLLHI
Description: Surface Plasmon Resonance (SPR) Measurements. SPR measurements were performed on a Biacore T200 instrument (GE Healthcare). Recombinant human IGF-II R (CI-MPR) was purchased
from R&D Systems. Approximately 7000 resonance units (RU) of CI-MPR was immobilized on a
CM5 sensor chip in a sodium acetate buffer (25 μg/mL, pH 4.0) at 25 °C, using the amine coupling kit
provided by the manufacturer. Mannose 6-phosphate containing glycopeptides or glycoproteins were
determined at 25 °C under a flow rate of 10 μL/min. HBS-P+ buffer (10 mM HEPES, 150 mM NaCl,
0.05% surfactant P20, pH 7.4) was used as sample buffer and running buffer. Association was
measured for 3 min and dissociation for 10 min at same flow rate (10 μL/min). The surface
and glycoprotein analytes flowed over an immobilized chip with 2-fold serial dilution of the highest
concentration of 4 μM (for glycopeptides) or 1 μM (for RNase B) or 250 nM (for rhGAA).
analyses were performed by global fitting of the binding data to a 1:1 Langmuir binding model using

[4] = tested on: GAA-deficient multinucleated myotubes (KO); experiment: Western blot (anti-human GAA) of treated muscle cell lysates; assay type: cell-based, mouse; details: 5 μM for 24 hours, Western blot with anti-human GAA antibodies
Description: The available anti-human GAA antibodies detected a strong non-specific band in mouse muscle cells as indicated by its presence in both WT and GAA-deficient cell (Fig. 4b, right panel). Previous studies have shown that the mature 76 kDa form of GAA has a higher affinity and activity towards glycogen.[31,50]
Fig. 4 Effect of the therapeutic enzymes in GAA KO (KO) myotubes. […] GAA activity in cell lysates of wild type (WT) myotubes was measured for comparison. The KO cells were treated for 24 hours with 5 μM of each of the recombinant enzyme; n = 5 for each condition. Statistical significance was determined by one-way ANOVA; graph represents mean ± SD. *p <0.05; ****p <0.0001; ns – statistically insignificant. (b) Western blot analysis (with anti-human GAA antibodies) of muscle cell lysates treated with the recombinant enzymes; GAPDH was used as loading control. […]
(§1) Measurement of cell-associated GAA activity. The GAA activity in the cells was measured by using 4-methylumbelliferyl-α-D-glucopyranoside (4-MU- α-glucopyranoside; Sigma-Aldrich #M9766) as the fluorogenic GAA substrate as described.[13] […] Fluorescence was measured on a multi-label plate reader (TECAN, SPARK 10M) at 360 nm excitation/465 nm emission.
(§2) Measurement of the glycogen content. The glycogen content was measured as the amount of glucose released after glycogen digestion with Aspergillus Niger amyloglucosidase (Sigma-Aldrich). […]

[5] = tested on: GAA-deficient multinucleated myotubes (KO); experiment: Cell-associated GAA activity in treated GAA KO myotubes; assay type: cell-based, mouse; details: 5 μM for 24 hours, n = 5, versus untreated cells
Text: To evaluate the effect of the Endo-A (69) and Endo-F3 (70) remodeled rhGAA in the disease-relevant muscle cells, we used GAA-deficient multinucleated myotubes (KO) as an in vitro cell model system for Pompe disease.[48,49] These myotubes are formed from conditionally immortalized myoblasts derived from the GAA knockout mice; unlike myoblasts, the differentiated myotubes replicate the primary defect of the disease, namely, the enlargement of glycogen-laden lysosomes.
The available anti-human GAA antibodies detected a strong non-specific band in mouse muscle cells as indicated by its presence in both WT and GAA-deficient cell (Fig. 4b, right panel). Previous studies have shown that the mature 76 kDa form of GAA has a higher affinity and activity towards glycogen.[31,50] […]
BIAcore T200 evaluation software. rhGAA enzyme activity assay. The enzyme activity was assayed by using the substrate 4-methylumbelliferyl-α-D-glucopyranoside (4-MUG) (Sigma-Aldrich) which generates fluorescence on digestion.[9, 10] […] The reaction was monitored at 0 min, 1 min, 2 min, 5 min, 10 min and 15 min by taking 20 μL of aliquot and add ing 50 μL of stop buffer (100 mM glycine/NaOH, pH 11). Fluorescence was measured by a spectrophotometer with 355 nm excitation and 460 nm emission, and the error bar was based on three independent assays. […]

[6] = tested on: GAA-deficient multinucleated myotubes (KO); experiment: Lamp1 immunostaining of myotubes (lysosomal swelling); assay type: cell-based, mouse; details: 5 μM for 24 hours, confocal images
Text: The effect of the Endo-A and Endo-F3 remodeled rhGAA was confirmed by immunostaining of myotubes with Lamp1. […] The therapeutic potential of the M6P glycan-remodeled rhGAA in lysosomal glycogen reduction and reversal of muscle pathology will be further evaluated in Pompe disease animal models in future studies.
Fig. 5 Effect of the therapeutic enzymes on lysosomal swelling and glycogen content in GAA KO (KO) myotubes. […] Nuclei are stained with DAPI (blue). Bar: 10 μm. (b) Graph illustrates glycogen levels measured in cell lysates from WT, untreated- and treated KO myotubes. […] Statistical significance was determined by one-way ANOVA; graph represents mean ± SD. **p <0.01; ****p <0.0001; ns – statistically insignificant.
as §1, §2

## ATB200: a novel rhGAA carrying a higher M6P content
[1]
  Kd: 2 to 4 nM

## Lumizyme: recombinant human acid α-glucosidase (rhGAA; Lumizyme, Sanofi Genzyme) used for treatment of Pompe disease
[2]
  levels of endosomal (Rab5) and lysosomal (LAMP1) markers: remained the same as in the untreated GAA-deficient cells
[3]; 25 °C, average of three independent experiments
  Kd: 14 ± 3.7 nM
[4]
  processed, mature lysosomal form of rhGAA (76 kDa) in cells: barely detectable
[5]
  GAA activity in cell lysates: only a slight increase (statistically insignificant)
[6]
  enlarged LAMP1-positive lysosomes: Enlarged lysosomes were seen; also recorded: can be detected

## deglycosylated rhGAA: rhGAA treated with wild-type Endo-A to remove the high-mannose N-glycans including the M6P glycans
[3]
  affinity for CI-MPR (in words): lost its binding affinity
